Here are results for eight molecules from patent US6046209A (priority 1998, dated 2000).

The subject of one data set is topoisomerase II. The settings on record: cited from earlier work.
The conditions of data set [1]: in vivo; cited from earlier work.
The next data set has as its system Colon Carcinoma 26. The data set is described as follows: Efficacy in mouse tumor model Colon Carcinoma 26. Format: in vivo. The method, then:
(§1) The efficacy of the compounds of the present invention was also tested in vivo using three well-known mouse tumor models: L1210, Lewis Lung, and Colon Carcinoma 26.

Data set [2] relates to topoisomerase I; mouse tumor models. The data set is described as follows: Overall comparison of topoisomerase I inhibition ability, cytotoxicity and efficacy in mouse tumor models. The settings on record: results of Table I.
For another data set, the system named is L1210. The data set is described as follows: Efficacy in mouse tumor model L1210. It counts as in vivo. On the procedure: as §1
For a further data set, the system named is Lewis Lung. The data set is described as follows: Efficacy in mouse tumor model Lewis Lung. It counts as in vivo. On the procedure: as §1
Data set [3] deals with solid tumor cancers, particularly ovarian cancer and non-small cell lung carcinoma. The conditions noted are these: humans; cited from earlier work.

For `O=C1c2c(O)ccc(O)c2C(=O)c2c(NCCNCCO)ccc(NCCNCCO)c21` [mitoxantrone], the “effect on topoisomerase II” value with topoisomerase II is reported as “Inhibition of topoisomerase II”.

Regarding `COc1cc([C@@H]2c3cc4c(cc3[C@@H](O[C@@H]3O[C@@H]5CO[C@@H](C)O[C@H]5[C@H](O)[C@H]3O)[C@H]3COC(=O)[C@H]23)OCO4)cc(OC)c1O` [etoposide], in the data set with topoisomerase II, the “effect on topoisomerase II” value is “Inhibition of topoisomerase II”.

As to “(S)-10-amino-4-ethyl-4-hydroxy-1H-pyrano[3',4':6,7]indolizino[1,2-b]quinoline-3,14(4H,12H)-dione [CPT-11]”, the toxicity profile entry in data set [1] is “adverse toxicity profile”.

For the molecule `CC[C@@]1(O)C(=O)OCc2c1cc1n(c2=O)Cc2cc3c4c(ccc3nc2-1)OC(CN1CCOCC1)C4` (stereo partly drawn) [Formula III, (8S)-8-ethyl-1,2-dihydro-8-hydroxy-2(4-morpholinylmethyl)-11H-furano[3,2-f]-pyrano[3',4':6,7]indolizino[1,2-b]quinoline-9,12(8H,14H)-dione], in the data set on Colon Carcinoma 26 (20 mg/kg sc), the “% Inc. in Lifespan, Colon 26” value is reported as 45%. Besides, the “biological activity compared with camptothecin and topotecan” value in data set [2] is “comparable to camptothecin and topotecan”. Also, in the data set on L1210 (42 mg/kg ip), the “% Inc. in Lifespan, L1210” value turned out to be 350%. In the data set on Lewis Lung (22 mg/kg ip), the “% Inc. in Lifespan, Lewis Lung” value is on record as greater than 225%.

Consider `CC[C@@]1(O)C(=O)OCc2c1cc1n(c2=O)Cc2cc3c4c(ccc3nc2-1)OC(CN(C)C)C4` (stereo partly drawn) [Formula IV, (8S)-2-[(dimethylamino)methyl]-8-ethyl-1,2-dihydro-8-hydroxy-11H-furano[3,2-f]-pyrano[3',4':6,7]indolizino[1,2-b]quinoline-9,12(8H,14H)-dione], for which the “% Inc. in Lifespan, Colon 26” value in the data set on Colon Carcinoma 26 (20 mg/kg sc) is listed as 32%. Also, the “biological activity compared with camptothecin and topotecan” value in data set [2] was “comparable to camptothecin and topotecan”. In the data set with L1210 (15 mg/kg ip), the “% Inc. in Lifespan, L1210” value came out at 225%. Further, the “% Inc. in Lifespan, Lewis Lung” value in the data set with Lewis Lung (9 mg/kg ip) is recorded as 67%.

On to `CC[C@@]1(O)C(=O)OCc2c1cc1n(c2=O)Cc2cc3c(CN(C)C)c(O)ccc3nc2-1` [Topotecan, 9-dimethylaminomethyl-10-hydroxycamptothecin], for which the “% Inc. in Lifespan, Colon 26” value with Colon Carcinoma 26 (20 mg/kg sc) was found to be 45%. Also, the “efficacy in clinical tests” value in data set [3] was “efficacy against several solid tumor cancers, particularly ovarian cancer and non-small cell lung carcinoma”. Further, in the data set on L1210 (15 mg/kg ip), the “% Inc. in Lifespan, L1210” value is 217%. Besides, the “% Inc. in Lifespan, Lewis Lung” value in the data set on Lewis Lung (15 mg/kg ip) is 106%.

As for `CC[C@@]1(O)C(=O)OCc2c1cc1n(c2=O)Cc2cc3ccccc3nc2-1` [Camptothecin], in the data set on Colon Carcinoma 26 (4 mg/kg ip), the “% Inc. in Lifespan, Colon 26” value was 50%. Besides, the “% Inc. in Lifespan, L1210” value in the data set with L1210 (12 mg/kg ip) turned out to be 133%.

Turning to `COc1cccc2c1C(=O)c1c(O)c3c(c(O)c1C2=O)C[C@@](O)(C(=O)CO)C[C@@H]3O[C@H]1C[C@H](N)[C@H](O)[C@H](C)O1` [doxorubicin], the “effect on topoisomerase II” value in the data set with topoisomerase II is on record as “Inhibition of topoisomerase II”.
